Data published in PMC6679423 (International Journal of Molecular Sciences, 2019).
Marks after values point to notes of the source that are not given here. Each block holds one molecule with its values, some of them ahead of it.

What was measured:
CYP3A4 = details: cited from earlier work
human recombinant CYP1A1 = target: T1, human recombinant CYP1A1 (Homo sapiens, UniProt P04798); experiment: Vandetanib oxidation by human recombinant CYP1A1 (Supersomes); format: in vitro ADME
T1 construct: purchased Gentest Corp; host or cells: insect cells (baculovirus)
T1 sequence (P04798 1-512): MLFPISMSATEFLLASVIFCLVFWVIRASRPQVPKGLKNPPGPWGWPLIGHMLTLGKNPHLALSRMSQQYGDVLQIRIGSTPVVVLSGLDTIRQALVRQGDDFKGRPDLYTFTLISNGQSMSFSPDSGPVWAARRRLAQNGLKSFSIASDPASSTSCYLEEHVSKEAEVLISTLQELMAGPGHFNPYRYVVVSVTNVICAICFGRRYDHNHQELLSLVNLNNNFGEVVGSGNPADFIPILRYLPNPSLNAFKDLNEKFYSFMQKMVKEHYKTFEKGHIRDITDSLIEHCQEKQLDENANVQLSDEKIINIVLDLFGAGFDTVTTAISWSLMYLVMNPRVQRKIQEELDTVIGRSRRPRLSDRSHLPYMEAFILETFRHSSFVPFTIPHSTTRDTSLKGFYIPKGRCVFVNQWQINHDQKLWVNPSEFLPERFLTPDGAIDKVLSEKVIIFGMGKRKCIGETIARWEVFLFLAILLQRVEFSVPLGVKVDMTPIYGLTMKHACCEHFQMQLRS
Description: (§1) Vandetanib was from LC Laboratories (Woburn, MA, USA). Ketoconazole, NADPH, methimazol and other chemicals were all purchased from Sigma-Aldrich (St. Louis, MO, USA). The purity of all chemicals met the standards of American Chemical Society, unless noted otherwise. All animal experiments were conducted in accordance with the Regulations for the Care and Use of Laboratory Animals (311/1997, Ministry of Agriculture, Czech Republic), which follows the Declaration of Helsinki. Male Wistar rats (~125–150 g; AnLab, Czech Republic), male C57BL/6 mice ([…]; CXR Bioscience Ltd., Dundee, UK), and male New Zealand rabbits (2.5–3 kg; AnLab, Czech Republic) were employed as animal models. Animals were placed in cages in temperature- and humidity-controlled rooms, acclimatized for five days and maintained at 22 °C with a 12 h light/dark period. Standardized diet and water were provided ad libitum. Rats, mice and rabbits used to prepare microsomal fraction from untreated animals were sacrificed by cervical dislocation, livers snap-frozen in liquid nitrogen and stored at −80 °C until further processing (see below). For controls, livers of the animals were removed immediately after sacrifice, divided into small pieces (~1 g), snap-frozen in liquid nitrogen, and stored at −80 °C until isolation of microsomal fractions. Pooled microsomes were used for all in vitro experiments in the present study and prepared from 10 livers/group for all animal species following established protocols. Microsomal fractions were stored at −80 °C until analysis. Protein concentrations in the microsomal fractions were assessed using the bicinchoninic acid protein assay with bovine serum albumin as a standard. Male human hepatic microsomes (pooled sample) (sample LOT: 3043885) were from Gentest Corp. (Woburn, MA, USA). Microsomes from livers of twelve human donors were obtained from Gentest Corp. (Woburn, MA, USA) (cat. no. HG43–1, HG103, HG74, HG93, HG24, HG27, HG23, HG32, HK31, HK34, HG03, and HG42). Each human microsomal sample has been characterized for CYP, FMO and protein contents and specific CYP activities by Gentest Corp. We reanalyzed each microsomal preparation for specific CYP, NADPH:CYP reductase (POR) and FMO activities by assays described in the protocols of Gentest Corp. Our data were similar to those reported by Gentest Corp. in their specification sheets. […]

human hepatic microsomes [1] = experiment: Oxidation of vandetanib by human hepatic microsomes; format: in vitro ADME
Source text: The reaction was initiated by adding vandetanib.

rat hepatic microsomes = experiment: Oxidation of vandetanib by rat hepatic microsomes; format: in vitro ADME; details: 50 µM vandetanib, N-oxide higher
Description: (§2) Vandetanib was from LC Laboratories (Woburn, MA, USA). Ketoconazole, NADPH, methimazol and other chemicals were all purchased from Sigma-Aldrich (St. Louis, MO, USA). The purity of all chemicals met the standards of American Chemical Society, unless noted otherwise. All animal experiments were conducted in accordance with the Regulations for the Care and Use of Laboratory Animals (311/1997, Ministry of Agriculture, Czech Republic), which follows the Declaration of Helsinki. Male Wistar rats (~125–150 g; AnLab, Czech Republic), male C57BL/6 mice ([…]; CXR Bioscience Ltd., Dundee, UK), and male New Zealand rabbits (2.5–3 kg; AnLab, Czech Republic) were employed as animal models. Animals were placed in cages in temperature- and humidity-controlled rooms, acclimatized for five days and maintained at 22 °C with a 12 h light/dark period. Standardized diet and water were provided ad libitum. Rats, mice and rabbits used to prepare microsomal fraction from untreated animals were sacrificed by cervical dislocation, livers snap-frozen in liquid nitrogen and stored at −80 °C until further processing (see below). […] Protein concentrations in the microsomal fractions were assessed using the bicinchoninic acid protein assay with bovine serum albumin as a standard. […]

[2] = system: rabbit hepatic microsomes; experiment: Oxidation of vandetanib by rabbit hepatic microsomes; format: in vitro ADME; details: 50 µM vandetanib, N-oxide higher
Description: as §2

mouse hepatic microsomes = experiment: Oxidation of vandetanib by mouse hepatic microsomes; format: in vitro ADME; details: 50 µM vandetanib, N-oxide higher
Description: as §2

human liver microsomes [3] = experiment: Vandetanib metabolite formation by hepatic microsomes of 12 human donors; format: in vitro ADME; details: detection limit < 0.002
Description: as §1, with “sheets. The content of CYP, specific CYP and FMO activities in each human hepatic microsomes [phenacetin-O-deethylation (CYP1A2), coumarin-7-hydroxylation (CYP2A6), (S)-mephenytoin-N-demethylase (CYP2B6), paclitaxel-6α-hydroxylation (CYP2C8), diclofenac-4’-hydroxylation (CYP2C9), (S)-mephenytoin-4′-hydroxylation (CYP2C19), bufuralol-1’-hydroxylation (CYP2D6), chlorzoxazone-6-hydroxylation (CYP2E1), testosterone-6β-hydroxylation (CYP3A4), lauric acid-12-hydroxylation (CYP4A), methyl-p-tolyl sulfide oxidase (FMO)] are shown in Table 2. Human recombinant enzymes were used in the forms of Supersomes™ and obtained from Gentest Corp. In Supersomes™ microsomal fractions were isolated from insect cells that are transfected with baculovirus constructs containing cDNA of human CYP enzymes (CYP1A1/2, 1B1, 2A6, 2B6, 2C8/9/18/19/, 2D6, 2E1, 3A4). These Supersomes™ also express NADPH:CYP oxidoreductase (POR). However, because they are microsomes (particles of broken endoplasmic reticulum), other enzymes (proteins) of the endoplasmic reticulum membrane (like NADH:cytochrome b5 reductase and cytochrome b5) are also expressed at basal levels in these Supersomes™. We also utilized Supersomes™ which over-expressed cytochrome b5, in a molar ratio of CYP to cytochrome b5 of 1 to 5. In Supersomes™ where cytochrome b5 was not over-expressed (see above) pure cytochrome b5 was added to reach a molar ratio of CYP to cytochrome b5 of 1 to 5. Reconstitution of Supersomes™ with purified cytochrome b5 was performed as described previously.” for “sheets.”

human hepatic microsomes [4] = experiment: Correlation of CYP- and FMO-linked activities with vandetanib metabolite formation in human hepatic microsomes; format: in vitro ADME; details: 12 human liver microsomal samples; for Correlation coefficient (r) of metabolite amount with CYP2E1 activity: chlorzoxazone-6-hydroxylase
Description: as §1, with “sheets. The content of CYP, specific CYP and FMO activities in each human hepatic microsomes [phenacetin-O-deethylation (CYP1A2), coumarin-7-hydroxylation (CYP2A6), (S)-mephenytoin-N-demethylase (CYP2B6), paclitaxel-6α-hydroxylation (CYP2C8), diclofenac-4’-hydroxylation (CYP2C9), (S)-mephenytoin-4′-hydroxylation (CYP2C19), bufuralol-1’-hydroxylation (CYP2D6), chlorzoxazone-6-hydroxylation (CYP2E1), testosterone-6β-hydroxylation (CYP3A4), lauric acid-12-hydroxylation (CYP4A), methyl-p-tolyl sulfide oxidase (FMO)] are shown in Table 2. Human recombinant enzymes were used in the forms of Supersomes™ and obtained from Gentest Corp. In Supersomes™ microsomal fractions were isolated from insect cells that are transfected with baculovirus constructs containing cDNA of human CYP enzymes (CYP1A1/2, 1B1, 2A6, 2B6, 2C8/9/18/19/, 2D6, 2E1, 3A4). These Supersomes™ also express NADPH:CYP oxidoreductase (POR). However, because they are microsomes (particles of broken endoplasmic reticulum), other enzymes (proteins) of the endoplasmic reticulum membrane (like NADH:cytochrome b5 reductase and cytochrome b5) are also expressed at basal levels in these Supersomes™. We also utilized Supersomes™ which over-expressed cytochrome b5, in a molar ratio of CYP to cytochrome b5 of 1 to 5. In Supersomes™ where cytochrome b5 was not over-expressed (see above) pure cytochrome b5 was added to reach a molar ratio of CYP to cytochrome b5 of 1 to 5. Reconstitution of Supersomes™ with purified cytochrome b5 was performed as described previously.” for “sheets.”

human recombinant FMO1 = experiment: Vandetanib oxidation by human recombinant FMOs (Supersomes); format: in vitro ADME; details: recombinant FMO1 vs FMO3
Description: as §2

human liver microsomes [5] = experiment: Vandetanib metabolite formation by hepatic microsomes of 12 human donors; format: in vitro ADME; details: human hepatic microsomal sample HK23; detection limit < 0.002
VEGFR and EGFR = details: compared to the parent drug; cited from earlier work
[6] = target: CYP enzymes in human liver microsomes (Homo sapiens, UniProt P08684); experiment: Effects of inhibitors on N-desmethylvandetanib formation in human liver microsomes; details: inhibitor 50 μM equimolar to vandetanib (50 μM), 0.1 nmol microsomal CYP
Sequence of CYP enzymes in human liver microsomes (P08684 2-503): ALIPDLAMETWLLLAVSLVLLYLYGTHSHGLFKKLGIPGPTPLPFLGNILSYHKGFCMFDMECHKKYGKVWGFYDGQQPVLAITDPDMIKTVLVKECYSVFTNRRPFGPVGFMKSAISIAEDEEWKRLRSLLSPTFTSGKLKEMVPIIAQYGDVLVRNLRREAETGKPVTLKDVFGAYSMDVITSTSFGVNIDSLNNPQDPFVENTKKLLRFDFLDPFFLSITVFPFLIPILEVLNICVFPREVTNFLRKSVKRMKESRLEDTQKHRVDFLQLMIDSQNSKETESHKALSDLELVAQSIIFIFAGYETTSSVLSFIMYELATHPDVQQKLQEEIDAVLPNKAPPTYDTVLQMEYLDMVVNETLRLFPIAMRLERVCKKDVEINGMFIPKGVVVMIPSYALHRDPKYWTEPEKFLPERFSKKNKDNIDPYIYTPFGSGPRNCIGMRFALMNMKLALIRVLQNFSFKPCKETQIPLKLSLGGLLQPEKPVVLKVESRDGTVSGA
Sequence of CYP enzymes in human liver microsomes (P16435 2-677, further chain): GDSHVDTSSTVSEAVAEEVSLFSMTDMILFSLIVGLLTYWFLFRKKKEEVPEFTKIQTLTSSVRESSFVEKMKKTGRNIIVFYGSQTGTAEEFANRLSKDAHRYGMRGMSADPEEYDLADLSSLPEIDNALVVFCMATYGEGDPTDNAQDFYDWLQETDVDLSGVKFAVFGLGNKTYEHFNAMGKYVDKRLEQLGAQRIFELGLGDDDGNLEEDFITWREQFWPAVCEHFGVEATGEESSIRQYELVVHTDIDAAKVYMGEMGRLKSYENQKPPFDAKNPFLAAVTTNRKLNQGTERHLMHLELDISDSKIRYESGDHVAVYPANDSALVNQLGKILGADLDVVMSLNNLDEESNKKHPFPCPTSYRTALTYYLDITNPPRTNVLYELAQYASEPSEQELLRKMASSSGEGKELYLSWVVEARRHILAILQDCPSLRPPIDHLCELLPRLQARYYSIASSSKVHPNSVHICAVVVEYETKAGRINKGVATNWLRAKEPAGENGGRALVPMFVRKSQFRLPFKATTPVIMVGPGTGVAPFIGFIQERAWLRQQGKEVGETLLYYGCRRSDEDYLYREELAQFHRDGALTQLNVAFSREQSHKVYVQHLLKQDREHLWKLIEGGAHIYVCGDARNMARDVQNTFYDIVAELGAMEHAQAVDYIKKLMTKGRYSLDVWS
Description: After the incubations, 5 µL of 1 mM phenacetine (dissolved in methanol) was added as internal standard. The reaction was stopped by extraction with dichlormethane (2 × 1 mL).
Inhibition studies in human liver microsomes were essentially conducted as reported previously.

SMILES: CCC(C)n1ncn(-c2ccc(N3CCN(c4ccc(OCC5COC(Cn6cncn6)(c6ccc(Cl)cc6Cl)O5)cc4)CC3)cc2)c1=O (stereo not shown) [itraconazol]
inhibition of the formation of N-desmethylvandetanib after vandetanib treatment (CYP3A4): almost ineffective

VMax, maximal velocity of N-desmethylvandetanib formation (human recombinant CYP1A1; CYP1A1, hyperbolic kinetics): 0.76 ± 0.02 peak area/min/nmol CYP | K0.5, substrate concentration corresponding to half-maximal velocity (human recombinant CYP1A1; CYP1A1, oxidation to N-desmethylvandetanib): 35.12 ± 2.75 µM
SMILES: COc1cc2c(Nc3ccc(Br)cc3F)ncnc2cc1OCC1CCN(C)CC1 [vandetanib, N-(4-bromo-2-fluorophenyl)-6-methoxy-7-[(1-methylpiperidin-4-yl)-methoxy]-quinazolin-4-amine, reference compound]

vandetanib-N-oxide formed at fold lower amounts than N-desmethylvandetanib (human hepatic microsomes [1]): ~ 4 fold | F, fold difference between formation of N-desmethylvandetanib and vandetanib-N-oxide (rat hepatic microsomes): 4- to 8 fold | F, fold difference between formation of N-desmethylvandetanib and vandetanib-N-oxide [2]: 4- to 8 fold | F, fold difference between formation of N-desmethylvandetanib and vandetanib-N-oxide (mouse hepatic microsomes): 4- to 8 fold | vandetanib-N-oxide (M2) formed (human liver microsomes [3]; human hepatic microsomal sample HG24): 0.004 peak area/(mg protein × min) | vandetanib-N-oxide (M2) formed (human liver microsomes [3]; human hepatic microsomal sample HG42): 0.015 peak area/(mg protein × min) | vandetanib-N-oxide (M2) formed (human liver microsomes [3]; human hepatic microsomal sample HG74): 0.004 peak area/(mg protein × min) | vandetanib-N-oxide (M2) formed (human liver microsomes [3]; human hepatic microsomal sample HG93): 0.112 peak area/(mg protein × min) | vandetanib-N-oxide (M2) formed (human liver microsomes [3]; human hepatic microsomal sample HG103): 0.004 peak area/(mg protein × min) | vandetanib-N-oxide (M2) formed (human liver microsomes [3]; human hepatic microsomal sample HK31): 0.015 peak area/(mg protein × min) | Correlation coefficient (r) of metabolite amount with POR (human hepatic microsomes [4]): 0.035 | Correlation coefficient (r) of metabolite amount with Total CYPs (human hepatic microsomes [4]): 0.166 | Correlation coefficient (r) of metabolite amount with CYP2C19 activity (human hepatic microsomes [4]; (S)-mephenytoin-4′-hydroxylase): 0.088 | Correlation coefficient (r) of metabolite amount with CYP2B6 activity (human hepatic microsomes [4]; (S)-mephenytoin-N-demethylase): 0.093 | Correlation coefficient (r) of metabolite amount with CYP2D6 activity (human hepatic microsomes [4]; bufuralol-1′-hydroxylase): −0.343 | Correlation coefficient (r) of metabolite amount with CYP2E1 activity (human hepatic microsomes [4]): 0.714 | Correlation coefficient (r) of metabolite amount with CYP2E1 activity (human hepatic microsomes [4]; listed as M2): 0.714 ** | Correlation coefficient (r) of metabolite amount with CYP2A6 activity (human hepatic microsomes [4]; coumarine-7-hydroxylase): −0.339 | Correlation coefficient (r) of metabolite amount with CYP2C9 activity (human hepatic microsomes [4]; diclofenac-4′-hydroxylase): −0.039 | Correlation coefficient (r) of metabolite amount with FMO activity (human hepatic microsomes [4]; methyl-p-tolyl sulfide oxidase, listed as M2): 0.736 ** | Correlation coefficient (r) of metabolite amount with CYP2C8 activity (human hepatic microsomes [4]; paclitaxel-6α-hydroxylase): 0.288 | Correlation coefficient (r) of metabolite amount with CYP1A2 activity (human hepatic microsomes [4]; phenacetin-O-deethylase): −0.157 | Correlation coefficient (r) of metabolite amount with CYP3A4 activity (human hepatic microsomes [4]; testosterone-6β-hydroxylase): −0.200 | efficiency of FMO1 to form vandetanib-N-oxide relative to FMO3 (human recombinant FMO1): over 5 times | vandetanib-N-oxide (M2) formed (human liver microsomes [5]): 0.008 peak area/(mg protein × min)
SMILES: COc1cc2c(Nc3ccc(Br)cc3F)ncnc2cc1OCC1CC[N+](C)([O-])CC1 (stereo not shown) [vandetanib-N-oxide]
pharmacological activity relative to vandetanib (fold less active) (VEGFR and EGFR): more than 50 fold

SMILES: O=c1cc(-c2ccccc2)oc2c1ccc1ccccc12 [α-Napththoflavone, α-naphthoflavone]
% of Inhibition, N-Desmethyvandetanib Formation [6]: 0% | % of Inhibition, N-Desmethyvandetanib Formation ([6]; listed as α-NF): no inhibitory effects
